Data on 43 compounds can be found in patent US20240140931A1, “TRICYCLIC COMPOUNDS AND USES THEREOF” (HUTCHMED LIMITED, priority 2021, published 2024).

For experiment [1], the target named is Human full-length SHP2 recombinant protein (Homo sapiens (Human), UniProt Q06124). Briefly: Assay of full-length SHP2 phosphatase activity. In kind it is biochemical. The note with it: DiFMUP substrate, with activating peptide. In short, it runs like this: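 Full-length human SHP2 preincubated 30 min at RT with activating peptide and compound (1% DMSO final). DiFMUP substrate added, reaction 60 min at 25 °C in dark. Fluorescence at ex 355/em 460 nm; IC50 from 4-parameter fit against enzyme-free and vehicle controls.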

Experiment [2] deals with pERK1/2 (Thr202/Tyr204) in Miapaca2 cells. The experiment in a line: Assay of intracellular pERK1/2 (Thr202/Tyr204) phosphorylation. In kind it is cell-based. The method in brief: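 Miapaca2 cells treated 2 h at 37 °C with compound (3-fold series; final DMSO 0.5%), then lysed 1 h. pERK1/2 (Thr202/Tyr204) detected by HTRF (665/615 nm ratio) after 2 h at 25 °C; normalized to cell-free lysis buffer and DMSO-treated cell controls; IC50 by four-parameter fit.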

[3] abbreviates: pERK1/2 (Thr202/Tyr204) HTRF, 2 hours.
Where [4] appears, read: Homo sapiens, MIA PaCa-2, 2 h, pERK1/2 (Thr202/Tyr204) HTRF.

Where only a bound is given, the exact number is not on record here.

As usually defined, the IC50 is the concentration needed to halve the response being measured.

Human full-length SHP2 recombinant protein, sequence (Q06124 whole entry): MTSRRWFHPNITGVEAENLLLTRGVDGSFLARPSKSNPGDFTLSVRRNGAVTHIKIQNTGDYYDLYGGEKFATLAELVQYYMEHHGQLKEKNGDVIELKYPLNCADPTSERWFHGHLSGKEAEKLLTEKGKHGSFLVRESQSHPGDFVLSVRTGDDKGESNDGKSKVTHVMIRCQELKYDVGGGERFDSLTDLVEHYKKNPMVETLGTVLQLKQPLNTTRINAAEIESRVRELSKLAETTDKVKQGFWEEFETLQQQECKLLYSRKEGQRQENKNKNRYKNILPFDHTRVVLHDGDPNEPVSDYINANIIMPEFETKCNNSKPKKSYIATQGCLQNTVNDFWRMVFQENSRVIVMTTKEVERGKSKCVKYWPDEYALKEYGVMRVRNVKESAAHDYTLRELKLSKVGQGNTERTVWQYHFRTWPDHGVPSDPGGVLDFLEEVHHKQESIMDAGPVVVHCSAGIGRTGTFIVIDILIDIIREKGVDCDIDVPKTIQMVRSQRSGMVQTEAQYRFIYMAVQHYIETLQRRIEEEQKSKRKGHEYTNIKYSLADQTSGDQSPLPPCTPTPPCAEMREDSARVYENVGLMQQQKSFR

For the compound `C#Cc1ccc2c(c1)[C@@H](N)C1(CCN(c3cc(=O)n(-c4cccc(Cl)c4Cl)c(C)n3)CC1)C2` (atropisomer, axis not shown) [Compound 12, (S)-6-(1-amino-6-ethynyl-1,3-dihydrospiro[indene-2,4′-piperidin]-1′-yl)-3-(2,3-dichlorophenyl)-2-methylpyrimidin-4(3H)-one], the IC50 in experiment [1] stood at 1 nM; in experiment [2] (Homo sapiens, MIA PaCa-2, pERK1/2 (Thr202/Tyr204) HTRF, 2 hours), 7 nM.

For the compound `CNC(=O)C#Cc1ccc2c(c1)[C@@H](N)C1(CCN(c3cc(=O)n(-c4cccc(OC)c4Cl)c(C)n3)CC1)C2` (atropisomer, axis not shown) [Compound 181], the IC50 in experiment [1] is 44 nM; in experiment [2] (setting [3]), 447 nM.

Regarding `COCC#Cc1ccc2c(c1)[C@@H](N)C1(CCN(c3cc(=O)n(-c4ccc(F)c(Cl)c4Cl)c(C)n3)CC1)C2` (atropisomer, axis not shown) [Compound 125], the IC50 came to 96 nM in experiment [1] and 175 nM in experiment [2] (setting [3]).

Regarding `C#Cc1ccc2c(c1)[C@@H](N)C1(CCN(c3cc(=O)n(-c4cccc(Cl)c4Cl)c(C(F)(F)F)n3)CC1)C2` [Compound 121], the IC50 in experiment [1] and in experiment [2] (setting [4]) was greater than 1000 nM each time.

Regarding `Cc1nc(N2CCC3(CC2)Cc2ccc(C#CCO)cc2[C@H]3N)cc(=O)n1-c1cccc(Cl)c1Cl` [Compound 32], the values for the IC50 in experiment [1] and in experiment [2] (setting [4]) were 1 nM and 6 nM, respectively.

Turning to `C#Cc1ccc2c(c1)[C@@H](N)C1(CCN(c3cc(=O)n(-c4cccc5[nH]ncc45)c(C)n3)CC1)C2` [Compound 39], the IC50 in experiment [1] stood at 21 nM; in experiment [2] (setting [4]), 294 nM.

`COCC#Cc1ccc2c(c1)[C@@H](N)C1(CCN(c3cnc(Sc4ccnc(N)n4)c(N)n3)CC1)C2` [Compound 112]: the values for the IC50 in experiment [1] and in experiment [2] (setting [4]) were 2 nM and 6 nM, respectively.

As to `C#Cc1ccc2c(c1)[C@@H](N)C1(CCN(c3cc(=O)n(-c4ccc(F)c(Cl)c4)c(C)n3)CC1)C2` [Compound 45], the IC50 in experiment [1] is 11 nM; in experiment [2] (setting [4]), 261 nM.

For the compound `COCC#Cc1ccc2c(c1)[C@@H](N)C1(CCN(c3cc(=O)n(-c4ccc(F)c(OC)c4F)c(C)n3)CC1)C2` [Compound 82], the IC50 in experiment [1] stood at 2 nM; in experiment [2] (setting [4]), 43 nM.

For `CNCC#Cc1ccc2c(c1)[C@@H](N)C1(CCN(c3ncc(Sc4ccnc(N)c4Cl)c4nccn34)CC1)C2` [Compound 91], the values for the IC50 in experiment [1] and in experiment [2] (setting [4]) were 0.7 nM and 17 nM, respectively.

`C#Cc1ccc2c(c1)CC1(CCN(c3ncc(Sc4ccnc(NC5CCC5)c4Cl)c4nccn34)CC1)[C@@H]2N` [Compound 10]: the IC50 amounted to 35 nM in experiment [1] and 220 nM in experiment [2] (setting [4]).

As for `C#Cc1ccc2c(c1)[C@@H](N)C1(CCN(c3cc(=O)n(-c4cccc(C(F)(F)F)c4Cl)c(C)n3)CC1)C2` [Compound 106], the results for the IC50 in experiment [1] and in experiment [2] (setting [3]) were 9 nM and 84 nM, respectively.

As to `C#Cc1ccc2c(c1)CC1(CCN(c3nc(N)c(-c4cn(C)c5ncccc45)c4nccn34)CC1)[C@@H]2N` [Compound 25], the figures for the IC50 in experiment [1] and in experiment [2] (setting [4]) were 12 nM and 151 nM, respectively.

Regarding `Cc1nc(N2CCC3(CC2)Cc2ccc(C#CCN(C)C)cc2[C@H]3N)cc(=O)n1-c1ccc(F)c(Cl)c1Cl` [Compound 70], the IC50 in experiment [1] was determined as 2 nM; in experiment [2] (setting [4]) it was 141 nM.

Consider `C#Cc1ccc2c(c1)[C@@H](N)C1(CCN(c3cc(=O)n(-c4cccc(C(F)(F)F)c4Cl)c(C)n3)CC1)C2` (atropisomer, axis not shown) [Compound 119], for which the results for the IC50 in experiment [1] and in experiment [2] (setting [3]) were 178 nM and 698 nM, respectively.

As to `CCNC(=O)C#Cc1ccc2c(c1)[C@@H](N)C1(CCN(c3cnc(Sc4ccnc(N)c4Cl)c(C#N)n3)CC1)C2` [Compound 272], the IC50 worked out at 17 nM in experiment [1] and 252 nM in experiment [2] (setting [4]).

On to `COCCSc1ccc2c(c1)[C@@H](N)C1(CCN(c3ncc(Sc4ccnc(N)n4)c4nccn34)CC1)C2` [Compound 98], for which the figures for the IC50 in experiment [1] and in experiment [2] (setting [4]) were 3 nM and 20 nM, respectively.

`COCC#Cc1ccc2c(c1)[C@@H](N)C1(CCN(c3ncc(Sc4ccnc(C)n4)c4nccn34)CC1)C2` [Compound 132]: the IC50 in experiment [1] was 3 nM; in experiment [2] (setting [4]), 9 nM.

On to `CC#Cc1ccc2c(c1)[C@@H](N)C1(CCN(c3cc(=O)n(-c4cccc(Cl)c4Cl)c(C)n3)CC1)C2` [Compound 79], for which the IC50 in experiment [1] was determined as 1 nM; in experiment [2] (setting [4]), 60 nM.

Turning to `COCCSc1ccc2c(c1)[C@@H](N)C1(CCN(c3cc(=O)n(-c4ccc(F)c(OC)c4F)c(C)n3)CC1)C2` [Compound 101], the 50% inhibitory concentration (IC50) amounted to 12 nM in experiment [1] and 96 nM in experiment [2] (setting [4]).

Consider `COCC#Cc1ccc2c(c1)[C@@H](N)C1(CCN(c3ncc(-c4cn(C)c5ncccc45)c4nccn34)CC1)C2` [Compound 120], for which the IC50 in experiment [1] is 45 nM; in experiment [2] (setting [4]), 385 nM.

`C#Cc1ccc2c(c1)[C@@H](N)C1(CCN(c3cc(=O)n(-c4ccc(F)c(OC)c4F)c(C)n3)CC1)C2` [Compound 78]: the values for the IC50 in experiment [1] and in experiment [2] (setting [3]) were 3 nM and 43 nM, respectively.

With `C#Cc1ccc2c(c1)[C@@H](N)C1(CCN(c3cc(=O)n(-c4ccccc4C(F)(F)F)c(C)n3)CC1)C2` [Compound 107], the IC50 in experiment [1] was 739 nM; in experiment [2] (setting [4]) it was greater than 1000 nM.

Regarding `C#Cc1ccc2c(c1)[C@@H](N)C1(CCN(c3cc(=O)n(-c4ccc(F)c(Cl)c4Cl)c(C)n3)CC1)C2` [Compound 69], the IC50 in experiment [1] came to 5 nM; in experiment [2] (setting [3]), 66 nM.

In the case of `C#Cc1ccc2c(c1)CC1(CCN(c3nc(N)c(Sc4ccnc(N)c4Cl)c(=O)n3C)CC1)[C@@H]2N` [Compound 5], the IC50 in experiment [1] was 2 nM; in experiment [2] (setting [4]) it was 23 nM.

As to `CC#Cc1ccc2c(c1)[C@@H](N)C1(CCN(c3ncc(Sc4ccnc(N)c4Cl)c(N)n3)CC1)C2` [Compound 215], the IC50 in experiment [1] is 25 nM; in experiment [2] (setting [4]), 167 nM.

Regarding `C#Cc1ccc2c(c1)[C@@H](N)C1(CCN(c3nc(C)n(-c4ccc(OCC)cc4Cl)c(=O)c3C)CC1)C2` [Compound 92], the IC50 in experiment [1] was found to be 11 nM; in experiment [2] (setting [4]), 117 nM.

Regarding `CNC(=O)C#Cc1ccc2c(c1)[C@@H](N)C1(CCN(c3cc(=O)n(-c4ccc(F)c(F)c4Cl)c(C)n3)CC1)C2` (atropisomer, axis not shown) [Compound 210], the results for the IC50 in experiment [1] and in experiment [2] (setting [3]) were 52 nM and 527 nM, respectively.

As to `C#Cc1ccc2c(c1)[C@@H](N)C1(CCN(c3cc(=O)n(-c4cccc(F)c4Cl)c(C)n3)CC1)C2` [Compound 61], the results for the IC50 in experiment [1] and in experiment [2] (setting [4]) were 3 nM and 78 nM, respectively.

`C#Cc1ccc2c(c1)[C@@H](N)C1(CCN(c3cc(=O)n(-c4ccc(C#N)c(OC)c4Cl)c(C)n3)CC1)C2` (atropisomer, axis not shown) [Compound 190]: the IC50 in experiment [1] was found to be 253 nM; in experiment [2] (setting [3]), 672 nM.

Consider `COCC#Cc1cccc2c1CC1(CCN(c3ncc(Sc4ccnc(N)c4Cl)c4nccn34)CC1)[C@@H]2N` [Compound 97], for which the results for the IC50 in experiment [1] and in experiment [2] (setting [4]) were 2 nM and 11 nM, respectively.

`CCNC(=O)C#Cc1ccc2c(c1)[C@@H](N)C1(CCN(c3nc(N)c(Sc4ccnc(N)c4Cl)nc3Cl)CC1)C2` [Compound 224]: the results for the IC50 in experiment [1] and in experiment [2] (setting [4]) were 9 nM and 20 nM, respectively.

`C#Cc1ccc2c(c1)[C@@H](N)C1(CCN(c3ncc(Sc4ccnc(N)n4)nc3CO)CC1)C2` [Compound 116]: the IC50 came to 0.5 nM in experiment [1] and 1 nM in experiment [2] (setting [4]).

As for `C#Cc1ccc2c(c1)[C@@H](N)C1(CCN(c3cc(=O)n(-c4ccc(C#N)cc4Cl)c(C)n3)CC1)C2` [Compound 94], the 50% inhibitory concentration (IC50) in experiment [1] came to 7 nM; in experiment [2] (setting [4]), 155 nM.

With `C#Cc1ccc2c(c1)CC1(CCN(c3cnc(Sc4ccnc(N)c4Cl)c(N)n3)CC1)[C@@H]2N` [Compound 2], the IC50 was 5 nM in experiment [1] and 23 nM in experiment [2] (setting [4]).

As for `Cc1nc(N2CCC3(CC2)Cc2ccc(C#CCN(C)C)cc2[C@H]3N)cc(=O)n1-c1cc(Cl)ccc1Cl` [Compound 84], the IC50 is 67 nM in experiment [1] and greater than 1000 nM in experiment [2] (setting [4]).

As for `CC#Cc1ccc2c(c1)[C@@H](N)C1(CCN(c3cc(=O)n(-c4ccc(F)c(F)c4Cl)c(C)n3)CC1)C2` [Compound 214], the IC50 came to 4 nM in experiment [1] and 100 nM in experiment [2] (setting [3]).

As for `C#Cc1ccc2c(c1)[C@@H](N)C1(CCN(c3cc(=O)n(-c4cccc(C(F)(F)F)c4Cl)c(C)n3)CC1)C2` (atropisomer, axis not shown) [Compound 118], the values for the IC50 in experiment [1] and in experiment [2] (setting [3]) were 3 nM and 40 nM, respectively.

`CNC(=O)C#Cc1ccc2c(c1)[C@@H](N)C1(CCN(c3cc(=O)n(-c4ccc(F)c(OC)c4Cl)c(C)n3)CC1)C2` (atropisomer, axis not shown) [Compound 200]: the values for the IC50 in experiment [1] and in experiment [2] (setting [3]) were 25 nM and 512 nM, respectively.

For `C#Cc1cccc2c1CC1(CCN(c3cc(=O)n(-c4cccc(Cl)c4Cl)c(C)n3)CC1)[C@@H]2N` [Compound 80], the figures for the IC50 in experiment [1] and in experiment [2] (setting [4]) were 4 nM and 125 nM, respectively.

Turning to `C#Cc1ccc2c(c1)[C@@H](N)C1(CCN(c3cc(=O)n(-c4ccc(C#N)c(Cl)c4Cl)c(C)n3)CC1)C2` (atropisomer, axis not shown) [Compound 192], the IC50 in experiment [1] and in experiment [2] (setting [3]) was greater than 1000 nM in each case.

As for `C#Cc1ccc2c(c1)[C@@H](N)C1(CCN(c3cc(=O)n(-c4ccccc4SC)c(C)n3)CC1)C2` [Compound 133], the IC50 amounted to 29 nM in experiment [1] and 147 nM in experiment [2] (setting [4]).

As for `C#Cc1ccc2c(c1)[C@@H](N)C1(CCN(c3cc(=O)n(-c4cc(Cl)ccc4Cl)c(C)n3)CC1)C2` [Compound 73], the IC50 is 253 nM in experiment [1] and greater than 1000 nM in experiment [2] (setting [4]).
